The values that follow come from US9133204B2, “5-membered heterocyclic amides and related compounds” (H. Lundbeck A/S, priority 2007, dated 2015).

Each structure is given as a SMILES string.

One experiment concerns the target T1, P2X7 receptor (Homo sapiens, UniProt Q99572).
T1 construct: host or cells: SH-SY5Y
T1 sequence (Q99572 1-595): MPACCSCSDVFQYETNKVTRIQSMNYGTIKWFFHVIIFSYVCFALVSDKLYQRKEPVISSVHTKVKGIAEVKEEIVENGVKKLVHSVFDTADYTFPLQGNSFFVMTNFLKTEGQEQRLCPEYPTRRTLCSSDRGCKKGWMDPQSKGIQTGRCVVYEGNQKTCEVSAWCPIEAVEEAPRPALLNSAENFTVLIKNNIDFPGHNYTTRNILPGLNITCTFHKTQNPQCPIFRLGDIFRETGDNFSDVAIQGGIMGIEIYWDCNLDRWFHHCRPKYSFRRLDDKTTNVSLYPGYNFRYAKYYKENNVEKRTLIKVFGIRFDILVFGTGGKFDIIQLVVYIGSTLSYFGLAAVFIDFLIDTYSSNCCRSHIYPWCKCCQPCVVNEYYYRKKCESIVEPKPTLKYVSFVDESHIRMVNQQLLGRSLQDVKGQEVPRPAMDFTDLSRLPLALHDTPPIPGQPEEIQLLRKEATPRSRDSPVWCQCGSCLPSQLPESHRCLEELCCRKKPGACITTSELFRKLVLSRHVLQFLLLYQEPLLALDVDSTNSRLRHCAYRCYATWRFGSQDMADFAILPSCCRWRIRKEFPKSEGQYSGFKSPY
Put plainly: High throughput P2X7 calcium mobilization assay (Example 4A). It is filed as cell-based. Particulars: SH-SY5Y cells; 50% decrease in fluorescence response of cells exposed to 80 μM BzATP; Table I. As for the experimental part: A. High Throughput Assay of P2X7 Receptors
SH-SY5Y cells, ATCC Number CRL-2266, (American Type Culture Collection, Manassas, Va.) are cultured under DMEM/High medium supplemented with 10% FBS, and 10 mM HEPES (Invitrogen Corp., Carlsbad, Calif.) in 5% CO2 and at 37° C. One day prior to the experiment, cells are plated at a density of 100,000 cells/well in a 96 well black/clear TC plate (Corning® Costar®, Sigma-Aldrich Co., St. Louis, Mo.). At the beginning of the experiment, the culture medium is removed and cells are incubated with 50 μL of 2.3 μM Fluo-4 AM dye (Invitrogen Corp.) in the assay solution (5 mM KCl, 9.6 mM NaH2PO4.H2O, 25 mM HEPES, 280 mM sucrose, 5 mM glucose, and 0.5 mM CaCl2; pH is adjusted to 7.4 with NaOH) for an hour at 37° C. After one hour dye incubation, wells are rinsed once with 50 μL assay solution, and are then incubated for an hour at room temperature with 100 μL assay solution containing the test compound. The final concentration of test compound generally ranges from 1 to 2500 nM; for positive control cells, no test compound is added. After the one hour incubation, plates are transferred to a FLIPR^TETRA instrument (Molecular Devices, Sunnyvale, Calif.) for calcium mobilization analysis.
For determination of antagonist activity, 50 μL, of P2X7 agonist (2′(3)-O-(4-benzoyl-benzoyl)adenosine 5′-triphosephate (BzATP; Sigma-Aldrich) in the assay solution is transferred using the FLIPR into the plate, such that the final agonist concentration is 80 μM (about EC50). In negative control cells, 50 μL of assay solution without agonist is added at this stage. The peak fluorescence signal over a 2 minute period is then measured.
First, the average maximum relative fluorescent unit (RFU) response from the negative control wells (no agonist) is subtracted from the maximum response detected for each of the other experimental wells. Second, average maximum RFU response is calculated for the positive control wells (agonist wells).
Consider `COc1nccnc1-n1cc(C(=O)NCC23CC4CC(CC(C4)C2)C3)c(C)n1` [Compound 42, N-(adamantan-1-ylmethyl)-1-(3-methoxypyrazin-2-yl)-3-methyl-1H-pyrazole-4-carboxamide], for which the IC50 is at most 2000 nM.

In the case of `Cc1nn(-c2cncc(N)n2)cc1C(=O)NCC12CC3CC(CC(C3)C1)C2` [Compound 43, N-(adamantan-1-ylmethyl)-1-(6-aminopyrazin-2-yl)-3-methyl-1H-pyrazole-4-carboxamide], the IC50 is at most 2000 nM.

For the molecule `Cc1cnc(-n2cc(C(=O)NCC34CC5CC(CC(C5)C3)C4)c(C)n2)nc1N` [Compound 45, N-(adamantan-1-ylmethyl)-1-(4-amino-5-methylpyrimidin-2-yl)-3-methyl-1H-pyrazole-4-carboxamide], the IC50 is at most 2000 nM.

In the case of `Cc1cc(C(=O)NCC23CC4CC(CC(C4)C2)C3)n(C)n1` [Compound 46, N-(adamantan-1-ylmethyl)-1,3-dimethyl-1H-pyrazole-5-carboxamide], the IC50 was at most 2000 nM. As to `COC(=O)c1cc(C(=O)NCC23CC4CC(CC(C4)C2)C3)n(C(C)C)n1` [Compound 47, methyl 5-[(adamantan-1-ylmethyl)carbamoyl]-1-isopropyl-1H-pyrazole-3-carboxylate], the IC50 was at most 2000 nM. For `CCn1nc(C)c(Br)c1C(=O)NCC(CC(C)C)c1ccccc1` (stereo not shown) [Compound 49, 4-bromo-1-ethyl-3-methyl-N-(4-methyl-2-phenylpentyl)-1H-pyrazole-5-carboxamide], the IC50 was at most 2000 nM. In the case of `CCn1nc(C)c(Br)c1C(=O)NCC(c1ccccc1)c1ccccc1` [Compound 50, 4-bromo-N-(2,2-diphenylethyl)-1-ethyl-3-methyl-1H-pyrazole-5-carboxamide], the IC50 is at most 2000 nM.

As for `CC(C)n1nc(CN2CCCC(N)C2)cc1C(=O)NCC12CC3CC(CC(C3)C1)C2` (stereo not shown) [Compound 55, N-(adamantan-1-ylmethyl)-3-[(3-aminopiperidin-1-yl)methyl]-1-isopropyl-1H-pyrazole-5-carboxamide], the IC50 was at most 2000 nM. Still for that read-out and setting: next, `Cc1cnc(-n2cc(C(=O)NCC34CC5CC(CC(C5)C3)C4)c(C)n2)nc1NCCO` [Compound 56, N-(adamantan-1-ylmethyl)-1-{4-[(2-hydroxyethyl)amino]-5-methylpyrimidin-2-yl}-3-methyl-1H-pyrazole-4-carboxamide]: at most 2000 nM.

On to `Cc1nn(-c2nccnc2N)cc1C(=O)NCC12CC3CC(CC(C3)C1)C2` [Compound 58, N-(adamantan-1-ylmethyl)-1-(3-aminopyrazin-2-yl)-3-methyl-1H-pyrazole-4-carboxamide], for which the IC50 was at most 2000 nM. On to `Cc1nn(-c2cccc(N)n2)cc1C(=O)NCC12CC3CC(CC(C3)C1)C2` [Compound 59, N-(adamantan-1-ylmethyl)-1-(6-aminopyridin-2-yl)-3-methyl-1H-pyrazole-4-carboxamide], for which the IC50 is at most 2000 nM. Still for that read-out and setting: next, `Cc1nn(-c2cnc(N)cn2)cc1C(=O)NCC12CC3CC(CC(C3)C1)C2` [Compound 61, N-(adamantan-1-ylmethyl)-1-(5-aminopyrazin-2-yl)-3-methyl-1H-pyrazole-4-carboxamide]: at most 2000 nM; `Cc1nn(C)c(C(=O)NCC23CC4CC(CC(C4)C2)C3)c1Br` [Compound 62, N-(adamantan-1-ylmethyl)-4-bromo-1,3-dimethyl-1H-pyrazole-5-carboxamide]: at most 2000 nM. Turning to `CCn1nc(C)c(Br)c1C(=O)NCC12CC3CC(CC(C3)C1)C2` [Compound 63, N-(adamantan-1-ylmethyl)-4-bromo-1-ethyl-3-methyl-1H-pyrazole-5-carboxamide], the IC50 was at most 2000 nM. In the case of `Cc1cc(-n2cc(C(=O)NCC34CC5CC(CC(C5)C3)C4)c(C)n2)nc(N)n1` [Compound 64, N-(adamantan-1-ylmethyl)-1-(2-amino-6-methylpyrimidin-4-yl)-3-methyl-1H-pyrazole-4-carboxamide], the IC50 was at most 2000 nM. As to `O=C(NCC12CC3CC(CC(C3)C1)C2)c1sc(-c2ccccc2C(F)(F)F)nc1Cl` [Compound 65, N-(adamantan-1-ylmethyl)-4-chloro-2-[2-(trifluoromethyl)phenyl]-1,3-thiazole-5-carboxamide], the IC50 was at most 2000 nM. On to `O=C(NCC12CC3CC(CC(C3)C1)C2)c1cnc(-c2ccccc2C(F)(F)F)s1` [Compound 67, N-(adamantan-1-ylmethyl)-2-[2-(trifluoromethyl)phenyl]-1,3-thiazole-5-carboxamide], for which the IC50 is at most 2000 nM. For `Cc1nc(Sc2nccn2C)c(C(=O)NCC23CC4CC(CC(C4)C2)C3)s1` [Compound 69, N-(adamantan-1-ylmethyl)-2-methyl-4-[(1-methyl-1H-imidazol-2-yl)thio]-1,3-thiazole-5-carboxamide], the IC50 was at most 2000 nM.

The same experiment, now with this note: SH-SY5Y cells; 50% decrease in fluorescence response of cells exposed to 80 μM BzATP; flag after the MS data in Examples 1-2.
For `Cc1nc(-c2cccnc2)sc1C(=O)NCC(CC(C)C)c1ccc(Cl)cc1` (stereo not shown) [Compound 31, N-[2-(4-Chlorophenyl)-4-methylpentyl}-4-methyl-2-pyridin-3-yl-1,3-thiazole-5-carboxamide], the IC50 is at most 2000 nM. As to `Cc1nc(-c2cccnc2)sc1C(=O)NCC1(c2ccc(C(F)(F)F)cc2)CCCCC1` [Compound 32, N-({1-[4-(trifluoromethyl)phenyl]cyclohexyl}methyl)-4-methyl-2-pyridin-3-yl-1-,3-thiazole-5-carboxamide], the IC50 is at most 2000 nM. As to `Cc1ccc(C(CNC(=O)c2sc(-c3cccnc3)nc2C)CC(C)C)cc1` (stereo not shown) [Compound 33, N-[4-methyl-2-(4-methylphenyl)pentyl}-4-methyl-2-pyridin-3-yl-1,3-thiazole-5-carboxamide], the half-inhibitory concentration (IC50) is at most 2000 nM. Regarding `Cc1nc(-c2cccnc2)sc1C(=O)NCC1(c2ccc(F)cc2)CCCCC1` [Compound 34], the IC50 was at most 2000 nM. Regarding `CCCC(CNC(=O)c1sc(-c2cccnc2)nc1C)c1ccc(Cl)cc1` (stereo not shown) [Compound 35, N-[2-(4-chlorophenyl)pentyl}-4-methyl-2-pyridin-3-yl-1,3-thiazole-5-carboxamide], the IC50 was at most 2000 nM. Still for that read-out and setting: next, `COc1ccc(C2(CNC(=O)c3sc(-c4cccnc4)nc3C)CCCCC2)cc1` [Compound 36, N-{[1-(4-methoxyphenyl)cyclohexyl]methyl}-4-methyl-2-pyridin-3-yl-1,3-thiazole-5-carboxamide]: at most 2000 nM; `Cc1nc(-c2cccnc2)sc1C(=O)NCC1(c2ccc(Cl)cc2)CCOCC1` [Compound 37, N-{[4-(4-Chlorophenyl)tetrahydro-2H-pyran-4-yl]methyl}-4-methyl-2-pyridin-3-yl-1,3-thiazole-5-carboxamide]: at most 2000 nM. Take `Cc1ccc(C2(CNC(=O)c3sc(-c4cccnc4)nc3C)CCCCC2)cc1` [Compound 38, N-{[1-(4-methylphenyl)cyclohexyl]methyl}-4-methyl-2-pyridin-3-yl-1,3-thiazole-5-carboxamide]: the IC50 was at most 2000 nM.

Turning to `Cc1nc(-c2cccnc2)sc1C(=O)NCC1(c2ccc(Cl)c(F)c2)CCCCC1` [Compound 39, N-{[1-(4-chloro-3-fluorophenyl)cyclohexyl]methyl}-4-methyl-2-pyridin-3-yl-1-,3-thiazole-5-carboxamide], the IC50 is at most 2000 nM. `Cc1ccc(C2(CNC(=O)c3sc(-c4cccnc4)nc3C)CCCCC2)cn1` [Compound 40, N-{[1-(6-methylpyridin-3-yl)cyclohexyl]methyl}-4-methyl-2-pyridin-3-yl-1-,3-thiazole-5-carboxamide]: the IC50 was at most 2000 nM.

The term IC50 denotes the point on the concentration scale where inhibition reaches its midpoint.
